Here are results for 18 molecules from US11434242B2, “Dopamine-b-hydroxylase inhibitors” (BIAL-PORTELA & Cª, S.A., priority 2017, dated 2022).

Molecules are shown by their SMILES. Marks after values point to notes of the source that are not given here.

In this assay the target is T1, Dopamine beta hydroxylase (Homo sapiens, UniProt P09172).
T1 construct: 125 μl of plasma; tissue Instituto Português do Sangue Transplantação; host or cells: human plasma from healthy donors
T1 sequence (P09172 40-617 limits assumed): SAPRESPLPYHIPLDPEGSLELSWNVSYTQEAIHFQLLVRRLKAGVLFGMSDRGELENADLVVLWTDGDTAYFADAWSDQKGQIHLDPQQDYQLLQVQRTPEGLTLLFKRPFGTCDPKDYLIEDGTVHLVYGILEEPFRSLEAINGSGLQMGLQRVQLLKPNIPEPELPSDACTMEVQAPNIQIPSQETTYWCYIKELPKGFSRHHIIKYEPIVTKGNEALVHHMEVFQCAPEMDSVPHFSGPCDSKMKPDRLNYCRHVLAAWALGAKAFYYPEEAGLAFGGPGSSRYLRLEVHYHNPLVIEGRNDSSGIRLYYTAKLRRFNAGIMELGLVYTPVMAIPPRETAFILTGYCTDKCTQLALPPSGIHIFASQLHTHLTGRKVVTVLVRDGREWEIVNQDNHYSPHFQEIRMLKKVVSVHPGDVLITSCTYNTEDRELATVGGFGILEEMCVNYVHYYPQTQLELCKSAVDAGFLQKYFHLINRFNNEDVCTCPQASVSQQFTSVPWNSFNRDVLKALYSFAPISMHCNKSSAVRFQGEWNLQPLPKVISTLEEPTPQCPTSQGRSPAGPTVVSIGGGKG
Put plainly: Dopamine beta hydroxylase activity in human plasma. The assay is classed as biochemical. The procedure, abridged:
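Healthy-donor human plasma pre-incubated 10 min at 37° C with compound at final 10, 100 or 1000 nM in pH 5.0 acetate buffer with ascorbate, fumarate, pargyline, N-ethylmaleimide, catalase and copper sulfate. Tyramine substrate then added for 45 min; octopamine formed was isolated by SCX cartridge, periodate-converted and read at 330 nm; activity given as % control.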

With `O=C(Cc1[nH]c(=S)n2c1[C@@H]1C[C@]1(c1c(F)ccc(Cl)c1F)C2)N1CCC(F)(F)CC1` [Example 149, 2-((5aS,6aR)-5a-(3-chloro-2,6-difluorophenyl)-3-thioxo-2,3,5,5a,6,6a-hexahydrocyclopropa[3,4]pyrrolo[1,2-c]imidazol-1-yl)-1-(4,4-difluoropiperidin-1-yl)ethan-1-one], the “Plasma (0.01 μM), activity in % of control” value (inhibitor 0.01 μM) is listed as 52.5 % of control. The “Plasma (0.1 μM), activity in % of control” value (inhibitor 0.1 μM) was 3.0 % of control.
The corresponding values for `CN(C)C(=O)C1CCN(C(=O)Cc2c3n(c(=S)n2C)C[C@@H](c2c(F)ccc(F)c2F)C3)C1` (stereo partly drawn) [Example 358, N,N-dimethyl-1-(2-((R)-2-methyl-3-thioxo-6-(2,3,6-trifluorophenyl)-2,5,6,7-tetrahydro-3H-pyrrolo[1,2-c]imidazol-1-yl)acetyl)pyrrolidine-3-carboxamide] are 90.1 % of control and 24.9 % of control.
The corresponding values for `Cn1c(CC(=O)NC2CCCCC2)c2n(c1=S)C[C@@]1(c3cc(Cl)ccc3F)C[C@@H]21` [Example 302, 2-((5aS,6aR)-5a-(5-chloro-2-fluorophenyl)-2-methyl-3-thioxo-2,3,5,5a,6,6a-hexahydrocyclopropa[3,4]pyrrolo[1,2-c]imidazol-1-yl)-N-cyclohexylacetamide] are 62.7 % of control and 7.7 % of control.
The corresponding values for `O=C(CCc1[nH]c(=S)n2c1C[C@H](c1c(F)c(F)cc(F)c1F)C2)N1CCC(F)(F)CC1` [Example 206, (R)-1-(4,4-difluoropiperidin-1-yl)-3-(6-(2,3,5,6-tetrafluorophenyl)-3-thioxo-2,5,6,7-tetrahydro-3H-pyrrolo[1,2-c]imidazol-1-yl)propan-1-one] are 22.4 % of control and 8.7 % of control.
For `CN(C(=O)Cc1c2n(c(=S)n1C)C[C@@]1(c3cc(Br)ccc3F)C[C@@H]21)C1COC1` [Example 438, 2-((5aS,6aR)-5a-(5-bromo-2-fluorophenyl)-2-methyl-3-thioxo-2,3,5,5a,6,6a-hexahydrocyclopropa[3,4]pyrrolo[1,2-c]imidazol-1-yl)-N-methyl-N-(oxetan-3-yl)acetamide], the “Plasma (0.01 μM), activity in % of control” value (inhibitor 0.01 μM) is 64.0 % of control. For the same molecule, the “Plasma (0.1 μM), activity in % of control” value (inhibitor 0.1 μM) is 7.5 % of control.
The corresponding values for `O=C(O)Cc1[nH]c(=S)n2c1[C@@H]1C[C@]1(c1cc(Br)ccc1F)C2` [Example 361, 2-((5aS,6aR)-5a-(5-bromo-2-fluorophenyl)-3-thioxo-2,3,5,5a,6,6a-hexahydrocyclopropa[3,4]pyrrolo[1,2-c]imidazol-1-yl)acetic Acid] are 60.0 % of control and 10.4 % of control.
The corresponding values for `Cn1c(CC(=O)N2CCOCC2)c2n(c1=S)C[C@@]1(c3cc(Cl)ccc3F)C[C@@H]21` [Example 422, 2-((5aS,6aR)-5a-(5-chloro-2-fluorophenyl)-2-methyl-3-thioxo-2,3,5,5a,6,6a-hexahydrocyclopropa[3,4]pyrrolo[1,2-c]imidazol-1-yl)-1-morpholinoethan-1-one] are 68.1 % of control and 23.2 % of control.
For `Cn1c(CC(=O)NC2CCOCC2)c2n(c1=S)C[C@@]1(c3cc(Br)ccc3F)C[C@@H]21` [Example 314, 2-((5aS,6aR)-5a-(5-bromo-2-fluorophenyl)-2-methyl-3-thioxo-2,3,5,5a,6,6a-hexahydrocyclopropa[3,4]pyrrolo[1,2-c]imidazol-1-yl)-N-(tetrahydro-2H-pyran-4-yl)acetamide], for the setting “inhibitor 0.01 μM”, the “Plasma (0.01 μM), activity in % of control” value was 80.2 % of control. The “Plasma (0.01 μM), activity in % of control, re-test (asterisked)” value (inhibitor 0.01 μM, re-tested under the same experimental conditions, asterisked data believed to be correct) was 41.9* % of control. The “Plasma (0.1 μM), activity in % of control” value (inhibitor 0.1 μM) is 34.8 % of control. For the same molecule, the “Plasma (0.1 μM), activity in % of control, re-test (asterisked)” value (inhibitor 0.1 μM, re-tested under the same experimental conditions, asterisked data believed to be correct) is listed as 1.4* % of control.
On to `Cn1c(CC(=O)N[C@H]2CCOC2)c2n(c1=S)C[C@@]1(c3cc(Cl)ccc3F)C[C@@H]21` [Example 306, 2-((5aS,6aR)-5a-(5-chloro-2-fluorophenyl)-2-methyl-3-thioxo-2,3,5,5a,6,6a-hexahydrocyclopropa[3,4]pyrrolo[1,2-c]imidazol-1-yl)-N—((S)-tetrahydrofuran-3-yl)acetamide], for which the “Plasma (0.01 μM), activity in % of control” value (inhibitor 0.01 μM) was 70.6 % of control. Also, the “Plasma (0.1 μM), activity in % of control” value (inhibitor 0.1 μM) was 18.0 % of control.
The corresponding values for `CN(C(=O)Cc1c2n(c(=S)n1C)C[C@H](c1c(F)ccc(Cl)c1F)C2)C1COC1` [Example 429, (S)-2-(6-(3-chloro-2,6-difluorophenyl)-2-methyl-3-thioxo-2,5,6,7-tetrahydro-3H-pyrrolo[1,2-c]imidazol-1-yl)-N-methyl-N-(oxetan-3-yl)acetamide] are 37.8 % of control and 5.8 % of control.
For `Cn1c(CCNC(C)(C)C)c2n(c1=S)C[C@@H](c1c(F)ccc(F)c1F)C2` [Example 476, (R)-1-(2-(tert-butylamino)ethyl)-2-methyl-6-(2,3,6-trifluorophenyl)-2,5,6,7-tetrahydro-3H-pyrrolo[1,2-c]imidazole-3-thione Hydrofluoride], in that order: 94.3 % of control and 64.8 % of control.
For `Cn1c(CC(=O)NC2CCCC2)c2n(c1=S)C[C@@]1(c3cc(Cl)ccc3F)C[C@@H]21` [Example 273, 2-((5aS,6aR)-5a-(5-chloro-2-fluorophenyl)-2-methyl-3-thioxo-2,3,5,5a,6,6a-hexahydrocyclopropa[3,4]pyrrolo[1,2-c]imidazol-1-yl)-N-cyclopentylacetamide], in that order: 86.6 % of control and 28.9 % of control.
In the case of `Cn1c(CC(=O)NCC#N)c2n(c1=S)C[C@@]1(c3cc(Br)ccc3F)C[C@@H]21` [Example 305, 2-((5aS,6aR)-5a-(5-bromo-2-fluorophenyl)-2-methyl-3-thioxo-2,3,5,5a,6,6a-hexahydrocyclopropa[3,4]pyrrolo[1,2-c]imidazol-1-yl)-N-(cyanomethyl)acetamide], the “Plasma (0.01 μM), activity in % of control” value (inhibitor 0.01 μM) is on record as 61.2 % of control. Besides, the “Plasma (0.1 μM), activity in % of control” value (inhibitor 0.1 μM) is reported as 12.2 % of control.
The corresponding values for `Fc1ccc(Br)c(F)c1[C@H]1Cc2c(CCN3CCC(F)(F)CC3)[nH]c(=S)n2C1` [Example 177, (R)-6-(3-bromo-2,6-difluorophenyl)-1-(2-(4,4-difluoropiperidin-1-yl)ethyl)-2,5,6,7-tetrahydro-3H-pyrrolo[1,2-c]imidazole-3-thione] are 99.9 % of control and 77.1 % of control.
For `Cn1c(CC(=O)NC2CCCC2)c2n(c1=S)C[C@@H](c1cc(Cl)ccc1F)C2` [Example 245, (R)-2-(6-(5-chloro-2-fluorophenyl)-2-methyl-3-thioxo-2,5,6,7-tetrahydro-3H-pyrrolo[1,2-c]imidazol-1-yl)-N-cyclopentylacetamide], in that order: 107.8 % of control and 93 % of control.
For `Cn1c(CCC(=O)N2CCC[C@H]2CO)c2n(c1=S)C[C@@H](c1c(F)ccc(F)c1F)C2` [Example 267, 1-((S)-2-(hydroxymethyl)pyrrolidin-1-yl)-3-((R)-2-methyl-3-thioxo-6-(2,3,6-trifluorophenyl)-2,5,6,7-tetrahydro-3H-pyrrolo[1,2-c]imidazol-1-yl)propan-1-one], in that order: 90.8 % of control and 55.8 % of control.
`[2H]C([2H])([2H])n1c(CC(=O)NC2CCOCC2)c2n(c1=S)C[C@@]1(c3cc(Br)ccc3F)C[C@@H]21` [Example 463, 2-((5aS,6aR)-5a-(5-bromo-2-fluorophenyl)-2-(methyl-d)-3-thioxo-2,3,5,5a,6,6a-hexahydrocyclopropa[3,4]pyrrolo[1,2-c]imidazol-1-yl)-N-(tetrahydro-2H-pyran-4-yl)acetamide]: the “Plasma (0.01 μM), activity in % of control” value (inhibitor 0.01 μM) is recorded as 29.1 % of control. Further, the “Plasma (0.1 μM), activity in % of control” value (inhibitor 0.1 μM) is on record as 3.7 % of control.
On to `Cn1c(CC(=O)Nc2cnoc2)c2n(c1=S)C[C@@H](c1c(F)ccc(F)c1F)C2` [Example 347, (R)—N-(isoxazol-4-yl)-2-(2-methyl-3-thioxo-6-(2,3,6-trifluorophenyl)-2,5,6,7-tetrahydro-3H-pyrrolo[1,2-c]imidazol-1-yl)acetamide], for which the “Plasma (0.01 μM), activity in % of control” value (inhibitor 0.01 μM) is 79.0 % of control. Further, where the note is “inhibitor 0.1 μM”, the “Plasma (0.1 μM), activity in % of control” value is recorded as 17.7 % of control.
